Test results published in PubChem BioAssay (NCI).
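48-hour exposure; five concentrations; linearly interpolated endpoints. TGI marks complete inhibition of growth.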

Tests used:
Assay in all cases: NCI anticancer screen, dose series, 48 h
786-0 renal = system: 786-0 renal
A498 renal = system: A498 renal
A549 NSCLC = system: A549 NSCLC
ACHN renal = system: ACHN renal
BT-549 breast = system: BT-549 breast
CAKI-1 renal = system: CAKI-1 renal
CCRF-CEM leukemia = system: CCRF-CEM leukemia
COLO 205 colon = system: COLO 205 colon
DU-145 prostate = system: DU-145 prostate
EKVX NSCLC = system: EKVX NSCLC
HCC-2998 colon = system: HCC-2998 colon
HCT-116 colon = system: HCT-116 colon
HCT-15 colon = system: HCT-15 colon
HOP-62 NSCLC = system: HOP-62 NSCLC
HOP-92 NSCLC = system: HOP-92 NSCLC
HS 578T breast = system: HS 578T breast
HT29 colon = system: HT29 colon
IGROV1 ovarian = system: IGROV1 ovarian
K-562 leukemia = system: K-562 leukemia
KM12 colon = system: KM12 colon
LOX IMVI melanoma = system: LOX IMVI melanoma
M14 melanoma = system: M14 melanoma
MALME-3M melanoma = system: MALME-3M melanoma
MCF7 breast = system: MCF7 breast
MDA-MB-231 breast = system: MDA-MB-231 breast
MDA-MB-435 = system: MDA-MB-435
MDA-N = system: MDA-N
MOLT-4 leukemia = system: MOLT-4 leukemia
NCI-H226 lung = system: NCI-H226 lung
NCI-H23 lung = system: NCI-H23 lung
NCI-H460 lung = system: NCI-H460 lung
NCI-H522 lung = system: NCI-H522 lung
NCI/ADR-RES ovarian = system: NCI/ADR-RES ovarian
OVCAR-3 ovarian = system: OVCAR-3 ovarian
OVCAR-4 ovarian = system: OVCAR-4 ovarian
OVCAR-5 ovarian = system: OVCAR-5 ovarian
OVCAR-8 ovarian = system: OVCAR-8 ovarian
PC-3 prostate = system: PC-3 prostate
RPMI-8226 leukemia = system: RPMI-8226 leukemia
RXF 393 renal = system: RXF 393 renal
SF-268 CNS = system: SF-268 CNS
SF-295 CNS = system: SF-295 CNS
SF-539 CNS = system: SF-539 CNS
SK-MEL-2 melanoma = system: SK-MEL-2 melanoma
SK-MEL-28 melanoma = system: SK-MEL-28 melanoma
SK-MEL-5 melanoma = system: SK-MEL-5 melanoma
SN12C renal = system: SN12C renal
SNB-19 CNS = system: SNB-19 CNS
SNB-75 CNS = system: SNB-75 CNS
SR leukemia = system: SR leukemia
SW-620 colon = system: SW-620 colon
TK-10 renal = system: TK-10 renal
U251 CNS = system: U251 CNS
UACC-257 melanoma = system: UACC-257 melanoma
UACC-62 melanoma = system: UACC-62 melanoma
UO-31 renal = system: UO-31 renal
HL-60(TB) leukemia = system: HL-60(TB) leukemia
SK-OV-3 ovarian = system: SK-OV-3 ovarian
T-47D breast = system: T-47D breast

For O=C1c2cc3ncsc3cc2C(=O)c2c(O)ccc(O)c21, which TGI (786-0 renal) is on record?
The TGI was greater than 100 µM.

And the TGI (A498 renal)?
The TGI was greater than 100 µM.

And the TGI (A549 NSCLC)?
Its TGI is greater than 100 µM.

And the TGI (ACHN renal)?
Its TGI is greater than 100 µM.

And the TGI (BT-549 breast)?
Its TGI is greater than 100 µM.

What about the TGI (CAKI-1 renal) of the same compound?
The TGI was greater than 100 µM.

What about the TGI (CCRF-CEM leukemia) of the same compound?
The TGI was greater than 100 µM.

And the TGI (COLO 205 colon)?
Its TGI is greater than 100 µM.

What about the TGI (DU-145 prostate) of the same compound?
Its TGI is greater than 100 µM.

And the TGI (EKVX NSCLC)?
Its TGI is greater than 100 µM.

What about the TGI (HCC-2998 colon) of the same compound?
Its TGI is greater than 100 µM.

And the TGI (HCT-116 colon)?
Its TGI is greater than 100 µM.

And the TGI (HCT-15 colon)?
Its TGI is greater than 100 µM.

And the TGI (HOP-62 NSCLC)?
Its TGI is greater than 100 µM.

What about the TGI (HOP-92 NSCLC) of the same compound?
Its TGI is greater than 100 µM.

What about the TGI (HS 578T breast) of the same compound?
Its TGI is greater than 100 µM.

What about the TGI (HT29 colon) of the same compound?
The TGI was greater than 100 µM.

What about the TGI (IGROV1 ovarian) of the same compound?
Its TGI is greater than 100 µM.

What about the TGI (K-562 leukemia) of the same compound?
Its TGI is greater than 100 µM.

And the TGI (KM12 colon)?
Its TGI is greater than 100 µM.

And the TGI (LOX IMVI melanoma)?
The TGI was greater than 100 µM.

What about the TGI (M14 melanoma) of the same compound?
Its TGI is greater than 100 µM.

And the TGI (MALME-3M melanoma)?
The TGI was greater than 100 µM.

What about the TGI (MCF7 breast) of the same compound?
Its TGI is greater than 100 µM.

And the TGI (MDA-MB-231 breast)?
Its TGI is greater than 100 µM.

And the TGI (MDA-MB-435)?
Its TGI is greater than 100 µM.

And the TGI (MDA-N)?
Its TGI is greater than 100 µM.

And the TGI (MOLT-4 leukemia)?
Its TGI is greater than 100 µM.

What about the TGI (NCI-H226 lung) of the same compound?
The TGI was greater than 100 µM.

What about the TGI (NCI-H23 lung) of the same compound?
The TGI was greater than 100 µM.

And the TGI (NCI-H460 lung)?
The TGI was greater than 100 µM.

What about the TGI (NCI-H522 lung) of the same compound?
The TGI was greater than 100 µM.

What about the TGI (NCI/ADR-RES ovarian) of the same compound?
The TGI was greater than 100 µM.

And the TGI (OVCAR-3 ovarian)?
The TGI was greater than 100 µM.

And the TGI (OVCAR-4 ovarian)?
Its TGI is greater than 100 µM.

What about the TGI (OVCAR-5 ovarian) of the same compound?
Its TGI is greater than 100 µM.

And the TGI (OVCAR-8 ovarian)?
The TGI was greater than 100 µM.

What about the TGI (PC-3 prostate) of the same compound?
The TGI was greater than 100 µM.

And the TGI (RPMI-8226 leukemia)?
The TGI was greater than 100 µM.

And the TGI (RXF 393 renal)?
The TGI was greater than 100 µM.

What about the TGI (SF-268 CNS) of the same compound?
Its TGI is greater than 100 µM.

And the TGI (SF-295 CNS)?
The TGI was greater than 100 µM.

What about the TGI (SF-539 CNS) of the same compound?
The TGI was greater than 100 µM.

And the TGI (SK-MEL-2 melanoma)?
The TGI was greater than 100 µM.

What about the TGI (SK-MEL-28 melanoma) of the same compound?
The TGI was greater than 100 µM.

What about the TGI (SK-MEL-5 melanoma) of the same compound?
Its TGI is greater than 100 µM.

What about the TGI (SN12C renal) of the same compound?
The TGI was greater than 100 µM.

What about the TGI (SNB-19 CNS) of the same compound?
Its TGI is greater than 100 µM.

And the TGI (SNB-75 CNS)?
Its TGI is greater than 100 µM.

What about the TGI (SR leukemia) of the same compound?
The TGI was greater than 100 µM.

And the TGI (SW-620 colon)?
Its TGI is greater than 100 µM.

And the TGI (TK-10 renal)?
Its TGI is greater than 100 µM.

What about the TGI (U251 CNS) of the same compound?
The TGI was greater than 100 µM.

And the TGI (UACC-257 melanoma)?
Its TGI is greater than 100 µM.

And the TGI (UACC-62 melanoma)?
The TGI was greater than 100 µM.

What about the TGI (UO-31 renal) of the same compound?
Its TGI is greater than 100 µM.

For CN1CCN(c2nc3cc(F)ccc3n3cccc23)CC1, which TGI (786-0 renal) is on record?
Its TGI is greater than 100 µM.

What about the TGI (A549 NSCLC) of the same compound?
The TGI was greater than 100 µM.

What about the TGI (ACHN renal) of the same compound?
The TGI was greater than 100 µM.

What about the TGI (BT-549 breast) of the same compound?
The TGI was greater than 100 µM.

And the TGI (CAKI-1 renal)?
The TGI was 79 µM.

And the TGI (CCRF-CEM leukemia)?
The TGI was greater than 100 µM.

What about the TGI (COLO 205 colon) of the same compound?
Its TGI is greater than 100 µM.

What about the TGI (EKVX NSCLC) of the same compound?
Its TGI is greater than 100 µM.

What about the TGI (HCC-2998 colon) of the same compound?
Its TGI is greater than 100 µM.

What about the TGI (HCT-116 colon) of the same compound?
The TGI was greater than 100 µM.

And the TGI (HCT-15 colon)?
Its TGI is greater than 100 µM.

What about the TGI (HL-60(TB) leukemia) of the same compound?
The TGI was greater than 100 µM.

And the TGI (HOP-62 NSCLC)?
Its TGI is greater than 100 µM.

And the TGI (HOP-92 NSCLC)?
The TGI was greater than 100 µM.

What about the TGI (HS 578T breast) of the same compound?
Its TGI is 97.9 µM.

What about the TGI (HT29 colon) of the same compound?
The TGI was 87.6 µM.

What about the TGI (IGROV1 ovarian) of the same compound?
Its TGI is 87.6 µM.

And the TGI (K-562 leukemia)?
The TGI was greater than 100 µM.

What about the TGI (KM12 colon) of the same compound?
Its TGI is greater than 100 µM.

What about the TGI (LOX IMVI melanoma) of the same compound?
Its TGI is 31.4 µM.

What about the TGI (M14 melanoma) of the same compound?
The TGI was 34.5 µM.

What about the TGI (MALME-3M melanoma) of the same compound?
Its TGI is 62.4 µM.

And the TGI (MCF7 breast)?
Its TGI is greater than 100 µM.

And the TGI (MDA-MB-231 breast)?
Its TGI is greater than 100 µM.

What about the TGI (MDA-MB-435) of the same compound?
Its TGI is 64.6 µM.

What about the TGI (MDA-N) of the same compound?
The TGI was greater than 100 µM.

And the TGI (MOLT-4 leukemia)?
Its TGI is 81.8 µM.

What about the TGI (NCI-H226 lung) of the same compound?
The TGI was 54.1 µM.

And the TGI (NCI-H23 lung)?
Its TGI is greater than 100 µM.

And the TGI (NCI-H460 lung)?
Its TGI is 43 µM.

What about the TGI (NCI-H522 lung) of the same compound?
The TGI was greater than 100 µM.

What about the TGI (NCI/ADR-RES ovarian) of the same compound?
Its TGI is greater than 100 µM.

What about the TGI (OVCAR-3 ovarian) of the same compound?
The TGI was greater than 100 µM.

And the TGI (OVCAR-4 ovarian)?
Its TGI is greater than 100 µM.

And the TGI (OVCAR-5 ovarian)?
Its TGI is greater than 100 µM.

What about the TGI (OVCAR-8 ovarian) of the same compound?
The TGI was greater than 100 µM.

What about the TGI (PC-3 prostate) of the same compound?
Its TGI is greater than 100 µM.

What about the TGI (RPMI-8226 leukemia) of the same compound?
The TGI was greater than 100 µM.

And the TGI (RXF 393 renal)?
Its TGI is greater than 100 µM.

What about the TGI (SF-268 CNS) of the same compound?
The TGI was greater than 100 µM.

What about the TGI (SF-295 CNS) of the same compound?
The TGI was 52.9 µM.

What about the TGI (SF-539 CNS) of the same compound?
Its TGI is 79.2 µM.

What about the TGI (SK-MEL-28 melanoma) of the same compound?
The TGI was 51.8 µM.

And the TGI (SK-MEL-5 melanoma)?
The TGI was 38 µM.

What about the TGI (SK-OV-3 ovarian) of the same compound?
Its TGI is greater than 100 µM.

And the TGI (SN12C renal)?
The TGI was greater than 100 µM.

And the TGI (SNB-19 CNS)?
Its TGI is greater than 100 µM.

What about the TGI (SNB-75 CNS) of the same compound?
The TGI was 90.7 µM.

And the TGI (SR leukemia)?
Its TGI is greater than 100 µM.

What about the TGI (SW-620 colon) of the same compound?
The TGI was greater than 100 µM.

And the TGI (T-47D breast)?
The TGI was greater than 100 µM.

What about the TGI (TK-10 renal) of the same compound?
Its TGI is greater than 100 µM.

And the TGI (U251 CNS)?
The TGI was greater than 100 µM.

What about the TGI (UACC-257 melanoma) of the same compound?
Its TGI is 79 µM.

And the TGI (UACC-62 melanoma)?
The TGI was 80.4 µM.

What about the TGI (UO-31 renal) of the same compound?
The TGI was greater than 100 µM.
